Reference: paper PMC6321252 (Molecules, 2018)

Assays:
db/db mice = assay: Hypoglycemic study in diabetic db/db mice; type: in vivo, C57BLKS/J db/db mice; conditions: for AUC for the IPTT vs nontreated db/db mice / AUC for the OGTT vs nontreated db/db mice: 5 weeks administration; for AUC for the IPTT vs nontreated db/db mice / AUC for the OGTT vs nontreated db/db mice / effect on body weight (obesity): metformin 150 mg/kg, BB 200 mg/kg, BB 200 mg/kg plus OPCs 60 mg/kg; for effect on body weight (obesity): repeated oral administration 4 weeks
Protocol: Male C57BLKS/J db/db and db/m mice were obtained from the Model Animal Research Center of Nanjing University (Nanjing, China). The mice were housed in a temperature-and humidity-controlled room with free access to standard chow and water under a 12/12-h light/dark cycle. At 6 weeks of age, the diabetic db/db mice were randomly divided into 4 groups (n = 10 per group). […] After 6 h of fasting, their blood glucose was monitored using blood from the tail vein and a glucometer (Accu-CHEK, Roche, IN, USA) every week. On Days 33 and 35 after drug administration, the mice were fasted for 12 and 6 h to perform an OGTT and IPTT, respectively. At the end of the experimental period, the mice’s blood was collected for further studies. Serum TG and TC levels were assayed using commercial enzyme assay kits (Rongsheng, Shanghai, China).

Caco-2 cell monolayers = assay: Transepithelial transport of BB across Caco-2 cell monolayers; type: in vitro ADME
Protocol: (§1) Monolayers were employed at 21 days after seeding. To ensure the integrity of each cell monolayer, transepithelial electrical resistance was determined. Subsequently, cell monolayers were incubated with compounds in fresh incubation media from either the AP or BL side for designated time periods at 37 °C. The volume of incubation media on the AP and BL sides was 0.5 and 1.5 mL, respectively, and a 30 µL aliquot of the incubation solution was withdrawn at designated time points (60, 120, 180, and 240 min) from the receiver compartment and replaced with the same volume of a fresh prewarmed HBSS buffer.
(§2) BB concentrations were detected through LC–MS/MS. Apparent permeability (Papp) was calculated as follows:Papp = (dQ/dt) × VA/(C0 × A)(1) where dQ/dt is the permeability rate, A is the surface area of the monolayer, and C0 is the initial concentration of the drug.

[1] = as above; type: in vitro ADME; conditions: human, read-out: efflux ratio R = Papp(B-A)/Papp(A-B) of BB
Protocol: as §1, §2

P-gp = conditions: cited from earlier work
Caco-2 cells = assay: Cell viability (MTT assay) in Caco-2 cells; type: cell-based; conditions: BB 12.5 to 50 μM, 24 h
Protocol: The cells were treated with different doses of compounds and incubated for 24 h. Cell viability was determined using the MTT assay. Briefly, the cells were incubated with the MTT reagent (0.5 mg/mL) at 37 °C for 4 h, and the absorbency at a wavelength of 492 nm was measured using FlexStation 3 (Molecular Devices, Sunnyvale, CA, USA). The percentage of optical density was calculated by comparing with that of the control group.

[2] = parameters: method as in PMID 21637946; conditions: cited from earlier work

Papp(A-B) of BB (Caco-2 cell monolayers; apical to basolateral)	Papp(B-A) of BB (Caco-2 cell monolayers; basolateral to apical)	efflux ratio at 240 min [1]	Compound	AUC for the IPTT vs nontreated db/db mice (db/db mice; p < 0.001 vs. control)	AUC for the OGTT vs nontreated db/db mice (db/db mice; p < 0.001 vs. control)	effect on body weight (obesity) (db/db mice)	P-gp substrate status (P-gp)	cytotoxicity on Caco-2 cells (MTT) (Caco-2 cells)	oral bioavailability [2] [%]	hepatotoxicity (from serum ALT and AST) (db/db mice; 5 weeks, BB 200 mg/kg with or without OPCs 60 mg/kg)	lowering of fasting blood glucose (FBG) (db/db mice; oral, 4 weeks, BB 200 mg/kg with or without OPCs 60 mg/kg, p < 0.001 vs. control) [%]
			CN(C)C(=N)N=C(N)N [metformin]	significantly lower	significantly lower	no significant effect					
0.146 ± 0.012 ×10^−6	1.001 ± 0.049 ×10^−6	7.74 ± 1.13	COc1ccc2cc3[n+](cc2c1OC)CCc1cc2c(cc1-3)OCO2 [BB, Berberine]	significantly lower	significantly lower	no significant effect	substrate of P-gp	no toxic effect	< 1	did not cause hepatotoxicity	35
